{"source": "patent US20250352524A1", "about": "“PREVENTION OF METASTATIC OUTGROWTH USING TEAD INHIBITORS” (Georgetown University, priority 2024, published 2025)", "tested_on": "E0771 mammary carcinoma cells", "test": "E0771 mammary fat pad tumors in C57/BL6 mice, lung metastasis and lung immune profiling", "type": "in vivo", "settings": "for primary tumor growth / size: 30 mg/kg daily oral gavage from palpable tumors (3 weeks), resection at week 4; for lung metastases (number of mice / incidence): 30 mg/kg daily vs vehicle, H&E lung sections", "procedure": "In this study, E0771 mammary carcinoma cells were injected into the MFP of C57/BL6 mice. Treatment for this group started after tumors were palpable at 3-4 weeks. Similarly, no effect was observed on the primary tumor growth, yet lung metastases were decreased (FIG. 3, Panels A and B). […] Additionally, lung infiltrating CD8+ T-cells increased in iTEAD-treated mice (FIG. 3, Panel D).\nE0771 cells were injected into the mammary fat pad of C57BL/6 mice (Johnstone et al., 2015). When primary tumors became palpable at 3 weeks, mice were treated daily with VT107 or vehicle control. Mice weights were monitored throughout treatment (FIG. 8, Panel B). Primary tumors were surgically resected at week 4 and mice were euthanized at week 6 to inspect lungs for metastases (FIG. 9, Panel A)\nThere was no difference in the primary tumor size between treatment groups nor the size of recurrent tumors at 6 weeks (FIG. 9, Panel B and FIG. 8, Panel C). […] To investigate tissue specific effects, gene expression changes between treatment groups in lung and tumor tissues were analyzed by RNA-sequencing. […] To reduce the impact of TEAD inhibition on cancer cell intrinsic function such as dissemination and invasion, 4T1, a triple negative mouse mammary carcinoma cell line (Pulaski & Ostrand-Rosenberg, 2000), was injected into the tail vein of BALB/c mice that directly seed into the lung tissue. A reduction in lung metastases, as well as the suppression of inflammatory pathways, were observed (FIG. 9, Panels E and F, and FIG. 8, Panel F).\nFormalin-fixed, paraffin embedded (FFPE) lung tissue sections were stained with hematoxylin and eosin. Immunohistochemistry staining was performed on FFPE tumor and lung tissue sections. Slides were deparaffinized in xylene and rehydrated following a series of ethanol washes. Heat-induced antigen retrieval was then performed by placing slides in warmed sodium citrate buffer (pH 6.0) (Invitrogen, 005000) in a pre-heated steamer for 20 minutes. Slides were cooled at room temperature for an additional 20 minutes, prior to quenching endogenous peroxidase activity using 3% hydrogen peroxide buffer (Fisher, BP2633500) for 10 minutes. Next, slides were incubated overnight at 4° C. with either anti-CD8 (Cell Signaling Technology, #98941), anti-CD68 (Abcam, ab303565), anti-CD206 (Cell Signaling Technology, #24595), or anti-F480 (Cell Signaling Technology, #70076). Following PBS washes, the slides are then stained with a biotinylated secondary antibody using the VECTASTAIN Elite ABC-HRP Kit according to the user's manual (Vector Laboratories, PK-6101). Positive brown staining was produced by applying ImmPACT DAB EqV Substrate Kit (Vector Laboratories, SK-4103) to the slides, which were then counterstained with hematoxylin (Sigma, MHS16). Images were captured using the Olympus BX40 microscope, and positive staining was quantified manually. Immunofluorescent staining was performed on lung tissue sections. Slides were baked at 60°, deparaffinized in xylene, rehydrated, washed in DI water and incubated with 10% neutral buffered formalin (NBF) for an additional 20 minutes to increase tissue-slide retention. Epitope retrieval/microwave treatment (MWT) for all antibodies was performed by boiling slides in Antigen Retrieval buffer 6 (AR6 pH6, Akoya AR6001KT). Protein blocking is performed using antibody diluent/blocking buffer (Akoya, ARD1001EA) for 10 minutes at room temperature. Slides were incubated with Luciferase antibody (Sigma, #L0159) for 1 hour and OPAL Fluoresce 620 then counterstained with spectral DAPI (Akoya FP1490) for 5 min and mounted with ProLong Diamond Antifade (ThernoFisher, P36961). Slides were scanned at 10× magnification using the Vectra 3.0 Automated Quantitative Pathology Imaging System (PerkinElmer/Akoya).\nSingle cell suspensions were washed 2× with PBS. […]", "key": {"[1]": {"settings": "flow cytometry, tumor bearing mice"}, "[2]": {"settings": "flow cytometry, tumor bearing mice, listed as iTEAD"}}, "note": "Entries after “also recorded” stand apart in the source; their conditions may differ."}
{"substance": "VT107", "values": [{"measurement": "primary tumor growth / size", "value": "no difference"}, {"measurement": "primary tumor growth / size", "setting": "listed as iTEAD", "value": "no effect; also recorded: no change"}, {"measurement": "lung metastases (number of mice / incidence)", "value": "significantly less incidence"}, {"measurement": "lung metastases (number of mice / incidence)", "setting": "listed as iTEAD", "value": "decreased; also recorded: reduced"}, {"measurement": "number of CD8+ T-cells in lung tissue", "setting": "CD8 immunohistochemistry, tumor bearing mice, listed as iTEAD", "value": "increase in the number and infiltration; also recorded: significantly greater"}, {"measurement": "CD8+ T-cells in lung metastatic lesions", "setting": "CD8 immunohistochemistry, listed as iTEAD", "value": "infiltrated into lung metastases"}, {"measurement": "number of gene changes due to treatment, lungs compared to primary tumors", "setting": "RNA-sequencing", "value": "higher number"}, {"measurement": "size of recurrent tumors", "setting": "at 6 weeks, 2 weeks after resection", "value": "no difference"}, {"measurement": "CD86 (M1-like) in the lung macrophage population", "setting": "[1]", "value": "significantly enriched"}, {"measurement": "CD86/CD206 shift in the alveolar macrophage population", "setting": "[1]", "value": "also significant"}, {"measurement": "CD206 (M2-like) in the lung macrophage population", "setting": "[1]", "value": "significantly reduced"}, {"measurement": "infiltrating macrophages / monocytes in the lungs", "setting": "[2]", "value": "significant decrease"}, {"measurement": "lung infiltrating CD8+ T-cells", "setting": "[2]", "value": "increased; also recorded: higher numbers"}, {"measurement": "resident alveolar macrophages in the lungs", "setting": "[2]", "value": "higher frequency; also recorded: significant increase"}, {"measurement": "LXR/RXR anti-inflammatory pathway in lung tissues", "setting": "pathway analysis", "value": "increased"}, {"measurement": "disease-related inflammation pathways (hepatic and lung fibrosis, cardiac hypertrophy) in lung tissues", "setting": "pathway analysis", "value": "decrease"}]}
